The values that follow come from patent publication US6420559B1, “1-(4-arylpiperazin-1-yl)-ω-[N-(α,ω-dicarboximido)]-alkanes useful as uro-selective α1-adrenoceptor blockers” (Ranbaxy Laboratories Limited, priority 1997, dated 2002).

Molecules are shown by their SMILES. Where a name gives a salt, the structure may show the parent alone.

In general, melting point refers to the temperature, or range, at which the solid turns liquid.

Series [1] relates to anaesthetized normotensive rats. Put plainly: In vivo blood pressure, anaesthetized normotensive rats, intravenous route. Particulars: 0.3 mg/kg intravenous, 3 hours observation. The arrangement: species or system rat. On the procedure: (§1) Antihypertensive effect of selected compounds according to the invention were studied for their ability to lower blood pressure in anaesthetized and conscious normotensive and spontaneously hypertensive rats via intravenous, oral and intraduodenal routes.
Male wistar rats were anaesthetized with urethane (2.5 g/kg). Femoral vein and carotid artery were cannulated. Blood pressure and heart rate were recorded using Statham pressure transducer. Data was recorded on Grass polygraph as well as using online data acquisition system (Buxco AT). Intravenously administered compounds of the invention were initially tested at 0.3 mg/kg over a period of 3 hours for their effect on blood pressure and the results are shown in Table 1. For a select few of the compounds, the blood pressure lowering effect upon intravenous administration was also studied at dosages of 0.03, 0.1, 0.3, and 1 mg/kg.

Series [2] has as its target Muscarinic cholinergic receptor (Rattus norvegicus, UniProt P08483). Put plainly: In vitro receptor selectivity, rat trachea. The class given is cell-based. On the procedure:
(§2) Selectivity of action of the present compounds was tested against a range of different receptors, e.g., β1- and α2-adrenergic, muscarinic cholinergic, serotoninergic (5-HT2A), histaminergic (H1), angiotensin II, endothelin (ETA and B,), as well as calcium and potassium channels. Rat aorta was used to study the effect of the compounds on 5-HT2A, ETA, calcium and potassium channels. Angiotensin II receptor antagonistic activity was studied in rabbit aorta. Muscarinic cholinergic receptor and ETB receptor antagonistic activity was studied in rat trachea, while guinea pig trachea was used to study H1 receptor antagonistic activity. Electrically stimulated rat vas deferens was used to investigate the effect of α2-adrenoceptors, while β1-adrenoceptor antagonistic activity was studied using electrically stimulated rat ventricular strips. Results of this selectivity study is shown in (Table 2).

For series [3], the system named is conscious spontaneously hypertensive rats. Kind of series: Systolic blood pressure in conscious spontaneously hypertensive rats, oral. The class given is in vivo, rat. Here is the method:
Spontaneously hypertensive rats weighing between 250-300 g were used in this study. Rats were fasted overnight. Blood pressure was monitored from tail artery using semi-automatic noninvasive blood pressure monitoring apparatus. Compounds of the present invention (at dosages of 1, 3, 10, and 30 mg/kg) were administered orally. Blood pressure was monitored prior to and 1.5, 4, 6 and 24 hours after drug administration.

For the next series, the system named is anaesthetized dogs. Put plainly: In vivo selectivity study, phenylephrine-induced blood pressure and intraurethral pressure in anaesthetized dogs. Set-up: species or system dog. Particulars: iv, against phenylephrine dose response. Here is the method:
Male mongrel dogs (12-20 Kg) were anaesthetized with pentobarbitone sodium (35 mg/kg, iv). Trachea was intubated for artificial respiration. Femoral artery and femoral vein were cannulated for recording blood pressure and for administration of drug solutions, respectively. Blood pressure was recorded on a polygraph through a pressure transducer. A paramedian incision was made lateral to the penis and the bladder was exposed. Urine was drained through a cannula put directly into the bladder and it was guided into the urethra gently and was placed at the prostatic urethra. Balloon was inflated with 2 cc air and its placement was confirmed by digital pressure. Intraurethral pressure was recorded on the polygraph through a pressure transducer. Graded dose response relationship of phenylephrine (1-16 μg/kg, iv) was obtained on prostatic pressure and blood pressure, prior to administration of the compounds of the present invention. Compounds 2, 9, and 13 (at dosages of 0.01, 0.03, 0.1, and 0.3 mg/kg) were administered intravenously 10 min before obtaining phenylephrine dose response curves. Results were analyzed and pseudo pKB values were calculated as described in Kenny et al (1996).

The test system of series [4] is anaesthetized normotensive rats. Put plainly: Mean arterial pressure in anaesthetized normotensive rats, intraduodenal route. The class given is in vivo, rat. Here is the method: as §1
Male wistar rats were fasted for 18 hours. Rats were anaesthetized with urethane. Femoral vein and carotid artery were cannulated. A catheter was placed in the duodenum following lapratomy. The compounds of the present invention (at dosages of 0.3, 1, 3 and 10 mg/kg) were administered in the duodenum and blood pressure was monitored for 3 hours.

For series [5], the system named is conscious freely moving normotensive rats. Put plainly: Mean arterial blood pressure in conscious freely moving normotensive rats, oral. The class given is in vivo, rat. Here is the method:
Femoral artery of normotensive male wistar rats, maintained on an overnight light diet, were catheterized under pentobarbitone anaesthesia (35 mg/kg). Femoral artery catheter was exteriorized through the neck region for blood pressure recording. […] Blood pressure and heart rate were recorded with the help of Statham pressure transducer on a Grass polygraph and the results are shown in Table 4.

The subject of another series is Potassium Channel. Put plainly: In vitro receptor selectivity, rat aorta. The class given is cell-based. Particulars: NE: No effect. Here is the method:
as §2

The target in another series is α1-adrenergic. Particulars: cited from earlier work.

Sequence of Muscarinic cholinergic receptor (P08483 whole entry): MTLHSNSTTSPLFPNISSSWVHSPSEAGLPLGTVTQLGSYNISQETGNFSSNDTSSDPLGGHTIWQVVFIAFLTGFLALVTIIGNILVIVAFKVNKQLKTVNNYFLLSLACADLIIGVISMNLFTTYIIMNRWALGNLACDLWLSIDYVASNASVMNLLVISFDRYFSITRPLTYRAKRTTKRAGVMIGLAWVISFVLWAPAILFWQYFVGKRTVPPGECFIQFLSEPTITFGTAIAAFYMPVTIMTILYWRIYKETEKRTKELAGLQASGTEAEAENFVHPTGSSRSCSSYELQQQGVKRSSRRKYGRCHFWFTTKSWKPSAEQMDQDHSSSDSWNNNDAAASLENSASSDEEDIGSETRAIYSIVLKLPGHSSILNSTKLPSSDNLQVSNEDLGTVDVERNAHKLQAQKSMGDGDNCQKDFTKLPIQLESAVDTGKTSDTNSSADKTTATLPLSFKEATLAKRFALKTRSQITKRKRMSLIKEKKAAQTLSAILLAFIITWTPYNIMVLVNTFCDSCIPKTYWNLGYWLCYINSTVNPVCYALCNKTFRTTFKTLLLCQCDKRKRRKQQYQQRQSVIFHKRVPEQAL

Take `O=C1CCC(=O)N1CCCN1CCN(c2ccc(F)cc2)CC1` (as salt: hydrochloride) [Compound 1, 1-[4-(4-Fluorophenyl)piperazin-1-yl]-3-(2,5-dioxopyrrolidin-1-yl)propane]: the melting point was in the range of 246 to 247 °C.

For the compound `COc1ccccc1N1CCN(CCCN2C(=O)CCC2=O)CC1` (as salt: hydrochloride) [Compound 2, 1-[4-(2-Methoxyphenyl)piperazin-1-yl]-3-(2,5-dioxopyrrolidin-1-yl)propane], the melting point was in the range of 199 to 202 °C.

For `O=C1CCCC(=O)N1CCCN1CCN(c2ccc(Cl)cc2)CC1` (as salt: hydrochloride) [Compound 15, 1-[4-(4-Chlorophenyl)piperazin-1-yl]-3-(2,6-dioxopiperidin-1-yl)propane], the melting point was in the range of 206 to 208 °C.

Compound `Cc1ccccc1N1CCN(CCCN2C(=O)CCCC2=O)CC1` (as salt: hydrochloride) [Compound 18, 1-[4-(2-Methylphenyl)piperazin-1-yl]-3-(2,6-dioxopiperidin-1-yl)propane] yielded a melting point of 206 to 207 °C.

As for `O=C1CCC(=O)N1CCCN1CCN(c2ccc(F)cc2)CC1` [Compound 1, 1-[4-(4-Fluorophenyl)piperazin-1-yl]-3-(2,5-dioxopyrrolidin-1-yl)propane], in [1], the Duration was found to be 15.0 min and the “In Vivo BP Fall in mmHg” value came out at 5.0 mmHg.

As for `COc1ccccc1N1CCN(CCCN2C(=O)CCC2=O)CC1` [Compound 2, 1-[4-(2-Methoxyphenyl)piperazin-1-yl]-3-(2,5-dioxopyrrolidin-1-yl)propane], the “pKB Muscarinic” value in series [2] was 5.0. The “Systolic Pressure (% Change from basal) (at 6 hours)” value in [3] (1 mg/kg oral) is −7.0%; in [3] (3 mg/kg oral), −12.0%; in series [3] (10 mg/kg oral) it was −13.0%; in series [3] (30 mg/kg oral), −17.0%. The “pseudo pKB Blood Pressure” value with anaesthetized dogs was determined as 6.9. Also, the “pseudo pKB Intraurethral Pressure” value with anaesthetized dogs was found to be 7.60. In addition, the “Duration of Action” value in series [4] (1 mg/kg intraduodenal), in series [4] (3 mg/kg intraduodenal) and in [4] (10 mg/kg intraduodenal) was greater than 2.5 h throughout. Moreover, the “Mean Arterial Pressure (% Change from basal)” value in series [4] (1 mg/kg intraduodenal) is recorded as −19%; in [4] (3 mg/kg intraduodenal), −43%; in series [4] (10 mg/kg intraduodenal), −42%; in [5] (3 mg/kg oral), −14%; in series [5] (10 mg/kg oral) it was −10%. In series [1], the Duration was 120.0 min. Besides, in series [1], the “In Vivo BP Fall in mmHg” value is listed as 25 mmHg.

For the compound `COc1ccccc1N1CCN(CCCCN2C(=O)CCC2=O)CC1` [Compound 9, 1-[4-(2-Methoxyphenyl)piperazin-1-yl]-4-(2,5-dioxopyrrolidin-1-yl)butane], the “pKB Muscarinic” value in series [2] is 5.0. In addition, the “Systolic Pressure (% Change from basal) (at 6 hours)” value in series [3] (1 mg/kg oral) was −0.4%; in series [3] (3 mg/kg oral), −7.0%; in series [3] (10 mg/kg oral) it was −24.0%; in series [3] (30 mg/kg oral) it was −25.0%. Also, the “pseudo pKB Blood Pressure” value with anaesthetized dogs worked out at 7.4. For the same compound, the “pseudo pKB Intraurethral Pressure” value in the series with anaesthetized dogs is given as 7.9. Also, the “Duration of Action” value in series [4] (1 mg/kg intraduodenal), in series [4] (3 mg/kg intraduodenal) and in series [4] (10 mg/kg intraduodenal) was greater than 3.0 h throughout. The “Mean Arterial Pressure (% Change from basal)” value in series [4] (1 mg/kg intraduodenal) is listed as −19%; in [4] (3 mg/kg intraduodenal), −53%; in series [4] (10 mg/kg intraduodenal) it was −57%; in [5] (1 mg/kg oral) it was −4%; in series [5] (10 mg/kg oral), −11%. Further, the Duration in series [1] is listed as greater than 180 min. In series [1], the “In Vivo BP Fall in mmHg” value is 46 mmHg.

As for `COc1ccccc1N1CCN(CCCN2C(=O)CCCC2=O)CC1` [Compound 13, 1-[4-(2-Methoxyphenyl)piperazin-1-yl]-3-(2,6-dioxopiperidin-1-yl)propane], the “pKB Potassium Channel” value in the series on Potassium Channel is reported as 5. The “pKB Muscarinic” value in [2] is 5.5. Also, the “Systolic Pressure (% Change from basal) (at 6 hours)” value in series [3] (1 mg/kg oral) is on record as −7.0%; in series [3] (3 mg/kg oral), −18.0%; in [3] (10 mg/kg oral), −19.0%; in series [3] (30 mg/kg oral), −14.0%. Moreover, the “pseudo pKB Blood Pressure” value in the series with anaesthetized dogs is on record as 7.1. Besides, the “pseudo pKB Intraurethral Pressure” value in the series with anaesthetized dogs is on record as 8.1. The “Duration of Action” value in [4] (1 mg/kg intraduodenal) was less than 3.0 h; in series [4] (3 mg/kg intraduodenal) it was greater than 3.0 h; in series [4] (10 mg/kg intraduodenal), greater than 3.0 h. Moreover, the “Mean Arterial Pressure (% Change from basal)” value in [4] (1 mg/kg intraduodenal) is on record as −32%; in [4] (3 mg/kg intraduodenal) it was −40%; in [4] (10 mg/kg intraduodenal), −42%; in series [5] (1 mg/kg oral) it was −5%; in series [5] (3 mg/kg oral) it was −10%. This compound came in with a Duration in [1] greater than 180 min. Besides, in series [1], the “In Vivo BP Fall in mmHg” value came out at 50.0 mmHg.

As to `O=C1CCCC(=O)N1CCCN1CCN(c2ccc(F)cc2)CC1` [Compound 14, 1-[4-(4-Fluorophenyl)piperazin-1-yl]-3-(2,6-dioxopiperidin-1-yl)propane], the melting point fell in the range of 200 to 202 °C. For the same compound, in series [1], the Duration is reported as 60.0 min and the “In Vivo BP Fall in mmHg” value was 20.0 mmHg.

With `O=C1CCCC(=O)N1CCCN1CCN(c2ccccc2F)CC1` [Compound 17, 1-[4-(2-Fluorophenyl)piperazin-1-yl]-3-(2,6-dioxopiperidin-1-yl)propane], in series [1], the Duration worked out at 120.0 min and the “In Vivo BP Fall in mmHg” value stood at 50.0 mmHg.

As for `Cc1ccccc1N1CCN(CCCN2C(=O)CCCC2=O)CC1` [Compound 18, 1-[4-(2-Methylphenyl)piperazin-1-yl]-3-(2,6-dioxopiperidin-1-yl)propane], in series [1], the Duration is greater than 150 min and the “In Vivo BP Fall in mmHg” value is given as 40.0 mmHg.

For `COc1cc2nc(N3CCN(C(=O)c4ccco4)CC3)nc(N)c2cc1OC` [prazosin], the “α1-adrenergic blocking activity (pKi)” value on α1-adrenergic is listed as greater than 8.
